These results are taken from patent US20100254940A1, “Compositions and Methods for Regulating an Immune Response in a Subject” (INNATE PHARMA, S.A., priority 2002, published 2010).

A short description of data set [1]: Vital parameters, haematology and serum clinical chemistry follow up in cynomolgus monkeys (non-GLP studies). Format: in vivo, cynomolgus monkeys (M. fascicularis). The procedure:
Classical blood parameters follow-up (red blood cell, platelets total and differential white blood cells counts, haemoglobin, mean corpuscular haemoglobin, mean corpuscular haemoglobin concentration) were performed at the sites of monkey handling, just before and after each administration and twice weekly.
On all animals in group 2, 48 or 72 hours after each injection, 16 blood chemistry parameters were measured (sodium, potassium, chloride, calcium, inorganic phosphorus, glucose, urea, total cholesterol, total bilirubin, total protein, albumin, globulin, creatinin, alkaline phosphatase, aspartate aminotransferase and […] aminotransferase).
The animals were observed daily and during and after each injection for any change in vital and clinical parameters (general behaviour, skin, hair, respiratory system, central nervous system). Animals were regularly weighed, every 3 days (group 1) or weekly (group 2). Body temperature (on vigil animals of group 2) was measured before and at the end of each BrHPP/IL2 (or IL2 alone) infusion and once daily during the 5 days following administration. Heart rate and blood pressure were recorded for all animals in group 2, before and at the end of each administration.

The subject of a further data set is γδ T cells. Description: Supplementary pharmaco-dynamics studies, consecutive injections of BrHPP in male cynomolgus monkeys. It is filed as in vivo. The protocol: We have thus performed other non-GLP pharmaco-dynamics studies in male cynomolgus monkeys in order to further document the features of in vivo γδ T cells response to consecutive injections of BrHPP, varying either the dose or the time-laps between injections.
In vivo amplification was assessed after 4 successive injections of 20 or 80 mg/kg Phosphostim®, 4 or 8 weeks apart.

The test system of a further data set is TNFα. Description: Serum TNFα by ELISA after BrHPP injection in cynomolgus monkeys. It is filed as in vivo, cynomolgus monkeys (M. fascicularis). The procedure:
Serum cytokines (TNFα and INFg) were detected and quantified with the BIOSOURCE Cytoscreen™ ELISA monkey TNFa and Cytoscreen™ ELISA monkey INFg respectively (purchased from CliniSciences, Montrouge, France) according to the manufacturer's instructions.
Samples of sera were collected from group 2 animals during the first dose range assay (0 to 80 mg/kg) just before injection then 1 and 4 hours post injection, and assayed by ELISA specific for TNFa and IFNg.
The objective of this GLP study was to explore further the pharmaco-dynamic properties of Phosphostim (BrHPP, 200 mg; GMP batch) alone and in combination with IL-2 following several i.v. administrations to cynomolgus monkeys. In particular, this study was planned to evaluate: • A dose-effect relationship between Phosphostim injection and γδ T cell peripheral amplification; • The pharmaco-dynamic effect of a second, third and up to fifth administration of Phosphostim in male and female animals; • The functionality of in vivo induced γδ T cells, by dosing systemic cytokines after Phosphostim treatment; • The effect of treatment with IL-2 alone and to validate the selected dose of 0.6 million IU/day/animal.
Phosphostim was administered i.v., as slow infusions (50 ml in 30 minutes), at various dose levels to five groups of two animals (one male+one female). Males received two successive injections of BrHPP (Day 0 and Day 22) before sacrifice and females four injections (Days 0, 22, 52 and 84). Two females, selected upon their level of response to the 4th treatment, received a supplementary injection of BrHPP alone at Day 91, during γδ cell peripheral increase, for systemic cytokine dosages.

Another data set concerns γδ T cell. Description: γδ T cell amplification from human PBMCs, counting γδ T cell using flow cytometry (given as in vivo EC50). It is filed as cell-based. The note with it: γδ T cell amplification from human PBMCs, flow cytometry count. The protocol: The biological activity of γδ T cell amplification from human PBMCs was assessed by counting γδ T cell using flow cytometry.
In vitro proliferation assays and in vitro TNFα release assay are performed essentially as described in Example 3.
On the technique in general: Flow cytometry measures light scatter and fluorescence of single cells or particles in a stream.

The next data set deals with 786-0 cells lines. Description: Nod-SCID/tumor model, human PBMC stimulated in vivo with BrHPP. Details: species or system Nod-SCID mice. The protocol:
Preliminary studies to set up the Nod-SCID/tumor and to stimulate human MNC with BrHPP in the Nod-SCID were carried out as follows: • The following renal tumor cells lines purchased from the ATCC (786-0, Kaci1, G401 and G402) were used for the establishment of the model. 786-0 and Kaci-1 cells lines were renal clear cell carcinoma (RCC), G401 rhabdoid and G402 leimyeloblastoma.
8-12 weeks Nod-SCID mice were used as recipient of the cells lines.
Each mouse received, at the left flank's upper part, 2-5×10^6 cells by subcutaneous injection at day D0. The appearance and the growing of the tumors evolution were checked weekly.
The tumors appearance and development depend on the cell line and on the number of engrafted cells. For example, after the engraftment of 2×10^6 cells, 3 to 4 weeks were needed for the 786-O and Kac1-1, while 2 weeks were needed for the G401 and 402. • At day 0, mice were injected IP 50*10^6 PBMC (collected from healthy donor, etablissement français du sang), then stimulated (IP) 40 mg/kg BrHPP mixed with 1000 IU of IL2. At D5 and each every three days, mice were treated with 500 UI of IL2. Human γδ T cells were developed in the peritoneal cavity of Nod-SCID/human (hu) BrHPP treated mice.
Taking advantage of the tumoral development in the Nod-SCID mice and the in vivo stimulation of the human γδ T cells, the anti-tumoral effect of the γδ T cells was studied in vivo. The tumoral model was established by engrafting 2×10^6 of 786-0 cells lines, three weeks later, when the volume of the solid tumor reached more than >30 mm3 (calculated with the formula A^2×B/2 where A and B represent respectively the length and breadth of the tumor). Mice, randomized, received IP PBMC and treated for the stimulation with BrHPP. Several groups were constituted:
A—Negative control group: Mice in the group received only tumoral cell line
B—PBMC group: Mice were injected IP with 50×10^6 PBMC
C—Study group: Mice after receiving the 50×10^6 PBMC were treated with BrHPP and
For each group, parameters were observed as follows: • Weekly check of the tumor size and volume • Weekly phenotype of human T cells in the peritoneal cavity and blood collected cells for the percentage of human γδ T cells versus ab human T cells. • Serological TNF and INF check • At sacrifice: • 1—phenotype study of the homing of human leukocytes cells and their phenotype (IP, liver, lung, spleen, bone morrow, blood, thymus and tumor). • 2—Immunohistochemistry (IHC) study in the tumor of the recipient mice.

By EC50 is commonly meant the concentration that produces a half-maximal response. Turning to “3-(bromomethyl)-3-butanol-1-yl-diphosphate [BrHPP]”, the “clinical or blood chemical parameters” value in data set [1] (BrHPP alone or in association with IL2) is given as “No alteration of clinical or blood chemical parameters”. Moreover, the rectal temperature entry in data set [1] (any animal treated) is “not significantly affected”. The “toxicity as assessed by vital signs or rectal temperature” value in data set [1] (five daily injection of 0.2 mg/kg BrHPP alone) is given as “did not result in any toxicity”. Further, the “toxicity, fever” value in data set [1] (four daily injections 1, 4, 16, 32 mg/kg BrHPP alone) is recorded as “no toxicity nor fever was observed”. Also, the lymphocytes entry in data set [1] (highest dose of BrHPP, at peak of Vg9Vd2 in the periphery) is given as “a lymphocytosis was observed”. Besides, the “in vivo amplification of γδ cells” value in the data set on γδ T cells (4 successive injections of 20 or 80 mg/kg Phosphostim, 4 or 8 weeks apart) is on record as “repeated increases of γδ cells”. The “γδ cell rate and absolute count in the periphery” value with γδ T cells (at least 3 successive injections, 8 weeks apart, 20 or 80 mg/kg, males) is on record as “significant increases”. Also, in the data set with γδ T cells (at least 4 successive injections, 4 weeks apart, 20 mg/kg, males), the “γδ cell rate and absolute count” value is reported as “detectable increases”. Besides, the “serum level of TNFa” value in the data set on TNFα (80 mg/kg, 4 hours post BrHPP injection) is recorded as “not further detectable”. In addition, the “TNFα in the sera” value in the data set with TNFα (80 mg/kg, one hour after injection) is on record as “detectable”. Further, the TNFa level result in the data set with TNFα (fifth injection 80 mg/kg without IL2, 4 hours post injection) is recorded as “undetectable at 4 hours post injection”. The “TNFa in the sera” value in the data set on TNFα (fifth injection 80 mg/kg without IL2 at peak after fourth injection) is “detectable”. In addition, the EC50 in the data set on γδ T cell was approximately 1 nM. For the same substance, the “mice in which the tumor was not totally cleared” value with 786-0 cells lines (PBMC + BrHPP + IL2) is 4 of 10. In the data set on 786-0 cells lines (PBMC/BrHPP (40 mg/kg IP) and IL2 treated group), the tumor size entry was “from day 7 onwards the tumor size shrank”. For the same substance, the “tumor growth where tumor not totally cleared” value in the data set with 786-0 cells lines (after 12 weeks) was “tumor growth was stopped and the tumor size stayed stable”. Further, the “human γδ cells in the tumor” value in the data set on 786-0 cells lines (at sacrifice, 4 weeks) is listed as “human γδ cells were present only in the BrHPP treated group”. Also, the reappearance of tumor entry in the data set with 786-0 cells lines (mice where the tumor was cleared, 12 weeks after the treatment) was “no reappearance of new tumor was observed”. In addition, the “human γδ T cell presence in the peritoneal cavity” value with 786-0 cells lines (weekly IP phenotype) is on record as “human γδ T cell presence only in the BrHPP treated mice”.
